Converted amounts (≈) assume the structure as drawn.
These molecules were tested on Mycobacterium tuberculosis H37Rv (assay: Mycobacterium tuberculosis H37Rv Inhibition Assay (Whole Cell Assay)). Details: ATCC 25618 / H37Rv, H37Rv strain (ATCC25618), Middlebrook 7H9, six days at 37° C., resazurin fluorescence after 48 hours.
Assay type: cell-based

SMILES	MIC [µM]
CCc1ccc([C@H]2C[C@@H](C(F)(F)F)n3ncc(C(=O)NCc4ccccc4)c3N2)cc1 (relative stereo) [Example 15, Cis-N-benzyl-5-(4-ethylphenyl)-7-(trifluoromethyl)-4,5,6,7-tetrahydropyrazolo[1,5-a]pyrimidine-3-carboxamide]	≤ 1
CCc1ccc([C@H]2C[C@@H](C(F)(F)F)n3ncc(C(=O)NCc4ccc(C)c(Cl)c4)c3N2)cc1 (relative stereo) [Example 9, Cis-N-(3-chloro-4-methylbenzyl)-5-(4-ethylphenyl)-7-(trifluoromethyl)-4,5,6,7-tetrahydropyrazolo[1,5-a]pyrimidine-3-carboxamide]	≤ 1
CCc1ccc([C@H]2C[C@@H](C(F)(F)F)n3ncc(C(=O)NCc4ccc(C(F)(F)F)cc4)c3N2)cc1 (relative stereo) [Example 6, Cis-5-(4-ethylphenyl)-7-(trifluoromethyl)-N-(4-(trifluoromethyl)benzyl)-4,5,6,7-tetrahydropyrazolo[1,5-a]pyrimidine-3-carboxamide]	≤ 1
CCc1ccc([C@H]2C[C@@H](C(F)(F)F)n3ncc(C(=O)NCc4ccc(C)c(C)c4)c3N2)cc1 (relative stereo) [Example 65, Cis-N-(3,4-dimethylbenzyl)-5-(4-ethylphenyl)-7-(trifluoromethyl)-4,5,6,7-tetrahydropyrazolo[1,5-a]pyrimidine-3-carboxamide]	≤ 1
CCc1ccc([C@@H]2C[C@H](C(F)(F)F)n3ncc(C(=O)NCc4ccco4)c3N2)cc1 (single isomer, unassigned) [Example 7b]	> 2
CCc1ccc([C@H]2C[C@@H](C(F)(F)F)n3ncc(C(=O)NCc4ccc(F)cc4)c3N2)cc1 (relative stereo) [Example 58, Cis-5-(4-ethylphenyl)-N-(4-fluorobenzyl)-7-(trifluoromethyl)-4,5,6,7-tetrahydropyrazolo[1,5-a]pyrimidine-3-carboxamide]	≤ 1
CCc1ccc([C@H]2C[C@@H](C(F)(F)F)n3ncc(C(=O)NCc4ccc(Cl)cn4)c3N2)cc1 (relative stereo) [Example 75, Cis-N-((5-chloropyridin-2-yl)methyl)-5-(4-ethylphenyl)-7-(trifluoromethyl)-4,5,6,7-tetrahydropyrazolo[1,5-a]pyrimidine-3-carboxamide]	1 to 2 (≈ 0.464 to 0.928 µg/mL)
Cc1ccc([C@H]2C[C@@H](C(F)(F)F)n3ncc(C(=O)NCC4CCCCC4)c3N2)cc1 (relative stereo) [Example 26, Cis-N-(cyclohexylmethyl)-5-(p-tolyl)-7-(trifluoromethyl)-4,5,6,7-tetrahydropyrazolo[1,5-a]pyrimidine-3-carboxamide]	1 to 2 (≈ 0.42 to 0.841 µg/mL)
CCc1ccc([C@H]2C[C@@H](C(F)(F)F)n3ncc(C(=O)NCc4ccc(C)o4)c3N2)cc1 (relative stereo) [Example 4, Cis-5-(4-ethylphenyl)-N-((5-methylfuran-2-yl)methyl)-7-(trifluoromethyl)-4,5,6,7-tetrahydropyrazolo[1,5-a]pyrimidine-3-carboxamide]	≤ 1
CCc1ccc([C@H]2C[C@@H](C(F)(F)F)n3ncc(C(=O)NCc4ccc(F)c(C)n4)c3N2)cc1 [Example 105, (5R,7S)-5-(4-ethylphenyl)-N-((5-fluoro-6-methylpyridin-2-yl)methyl)-7-(trifluoromethyl)-4,5,6,7-tetrahydropyrazolo[1,5-a]pyrimidine-3-carboxamide]	≤ 1
Cc1ccc([C@H]2C[C@@H](C(F)(F)F)n3ncc(C(=O)NCc4ccc(C(F)(F)F)cc4)c3N2)cc1 (relative stereo) [Example 28, Cis-5-(p-tolyl)-7-(trifluoromethyl)-N-(4-(trifluoromethyl)benzyl)-4,5,6,7-tetrahydropyrazolo[1,5-a]pyrimidine-3-carboxamide]	1 to 2 (≈ 0.482 to 0.965 µg/mL)
CCc1ccc([C@H]2C[C@@H](C(F)(F)F)n3ncc(C(=O)NCc4ccc(OC)cc4)c3N2)cc1 (single isomer, unassigned) [Example 1a]	≤ 1
CCc1ccc([C@H]2C[C@@H](C(F)(F)F)n3ncc(C(=O)NCc4ccc(OC)nc4)c3N2)cc1 (relative stereo) [Example 74, Cis5-(4-ethylphenyl)-N-((6-methoxypyridin-3-yl)methyl)-7-(trifluoromethyl)-4,5,6,7-tetrahydropyrazolo[1,5-a]pyrimidine-3-carboxamide]	1 to 2 (≈ 0.459 to 0.919 µg/mL)
CCc1ccc([C@@H]2C[C@H](C(F)(F)F)n3ncc(C(=O)NCc4ccc(OC)cc4)c3N2)cc1 (single isomer, unassigned) [Example 1b]	> 2
CCc1ccc([C@H]2C[C@@H](C(F)(F)F)n3ncc(C(=O)NCC4CCCCC4)c3N2)cc1 (relative stereo) [Example 5, Cis-N-(cyclohexylmethyl)-5-(4-ethylphenyl)-7-(trifluoromethyl)-4,5,6,7-tetrahydropyrazolo[1,5-a]pyrimidine-3-carboxamide]	≤ 1
CCc1ccc([C@H]2C[C@@H](C(F)F)n3ncc(C(=O)NCc4ccc(OC)cc4)c3N2)cc1 (relative stereo) [Example 32, Cis-7-(difluoromethyl)-5-(4-ethylphenyl)-N-(4-methoxybenzyl)-4,5,6,7-tetrahydropyrazolo[1,5-a]pyrimidine-3-carboxamide]	≤ 1
COc1ccc(CNC(=O)c2cnn3c2NC(c2ccc(C)cc2)CC3C(F)(F)F)cc1 (stereo not drawn) [Example 39, N-(4-methoxybenzyl)-5-(p-tolyl)-7-(trifluoromethyl)-4,5,6,7-tetrahydropyrazolo[1,5-a]pyrimidine-3-carboxamide]	≤ 1
CCc1ccc([C@H]2C[C@@H](C(F)(F)F)n3ncc(C(=O)NCc4cnc(OC)c(F)c4)c3N2)cc1 [Example 104, (5R,7S)-5-(4-ethylphenyl)-N-((5-fluoro-6-methoxypyridin-3-yl)methyl)-7-(trifluoromethyl)-4,5,6,7-tetrahydropyrazolo[1,5-a]pyrimidine-3-carboxamide]	≤ 1
CCc1ccc([C@H]2C[C@@H](C(F)(F)F)n3ncc(C(=O)NCc4ccc5c(c4)OCCO5)c3N2)cc1 (relative stereo) [Example 18, Cis-N-(2,3-dihydro-1,4-benzodioxin-6-ylmethyl)-5-(4-ethylphenyl)-7-(trifluoromethyl)-4,5,6,7-tetrahydropyrazolo[1,5-a]pyrimidine-3-carboxamide]	1 to 2 (≈ 0.486 to 0.973 µg/mL)
CCc1ccc([C@H]2C[C@@H](C(F)(F)F)n3ncc(C(=O)NCc4ccc(OC)nc4)c3N2)cc1 [Example 102, (5R,7S)-5-(4-ethylphenyl)-N-((6-methoxypyridin-3-yl)methyl)-7-(trifluoromethyl)-4,5,6,7-tetrahydropyrazolo[1,5-a]pyrimidine-3-carboxamide]	≤ 1
CCc1ccc(C2CC(C(F)(F)F)n3ncc(C(=O)NCc4ccc5c(c4)OCO5)c3N2)cc1 (stereo not drawn) [Example 37, N-(benzo[d][1,3]dioxol-5-ylmethyl)-5-(4-ethylphenyl)-7-(trifluoromethyl)-4,5,6,7-tetrahydropyrazolo[1,5-a]pyrimidine-3-carboxamide]	≤ 1
CCc1ccc([C@H]2C[C@@H](C(F)(F)F)n3ncc(C(=O)NCc4ccncc4)c3N2)cc1 (relative stereo) [Example 48, Cis-5-(4-ethylphenyl)-N-(pyridin-4-ylmethyl)-7-(trifluoromethyl)-4,5,6,7-tetrahydropyrazolo[1,5-a]pyrimidine-3-carboxamide]	> 2
CCc1ccc([C@H]2C[C@@H](C(F)(F)F)n3ncc(C(=O)NCc4ncc(F)cc4F)c3N2)cc1 (relative stereo) [Example 70, Cis N-((3,5-difluoropyridin-2-yl)methyl)-5-(4-ethylphenyl)-7-(trifluoromethyl)-4,5,6,7-tetrahydropyrazolo[1,5-a]pyrimidine-3-carboxamide]	≤ 1
CCc1ccc([C@H]2C[C@@H](C(F)(F)F)n3ncc(C(=O)NCc4ncc(F)cc4F)c3N2)cc1 [Example 101, (5R,7S)—N-((3,5-difluoropyridin-2-yl)methyl)-5-(4-ethylphenyl)-7-(trifluoromethyl)-4,5,6,7-tetrahydropyrazolo[1,5-a]pyrimidine-3-carboxamide]	≤ 1
CCc1ccc([C@H]2C[C@@H](C(F)(F)F)n3ncc(C(=O)NCc4ccc(N(C)C)cc4)c3N2)cc1 (relative stereo) [Example 11, Cis-N-(4-(dimethylamino)benzyl)-5-(4-ethylphenyl)-7-(trifluoromethyl)-4,5,6,7-tetrahydropyrazolo[1,5-a]pyrimidine-3-carboxamide]	1 to 2 (≈ 0.472 to 0.943 µg/mL)
Cc1ccc(CNC(=O)c2cnn3c2N[C@@H](c2ccc(Br)cc2)C[C@H]3C(F)(F)F)cc1 (relative stereo) [Example 21, Cis-5-(4-bromophenyl)-N-(4-methylbenzyl)-7-(trifluoromethyl)-4,5,6,7-tetrahydropyrazolo[1,5-a]pyrimidine-3-carboxamide]	≤ 1
Cc1ccc(C2CC(C(F)F)n3ncc(C(=O)NCc4ccccc4C(F)(F)F)c3N2)cc1 (stereo not drawn) [Example 55, 7-(difluoromethyl)-5-(p-tolyl)-N-(2-(trifluoromethyl)benzyl)-4,5,6,7-tetrahydropyrazolo[1,5-a]pyrimidine-3-carboxamide]	> 2
CCc1ccc([C@H]2C[C@@H](C(F)(F)F)n3ncc(C(=O)NCc4ccc(OC)cc4)c3N2)cc1 (relative stereo) [Example 1, Cis-5-(4-ethylphenyl)-N-(4-methoxybenzyl)-7-(trifluoromethyl)-4,5,6,7-tetrahydropyrazolo[1,5-a]pyrimidine-3-carboxamide]	≤ 1
COc1ccc(C2CC(C(F)(F)F)n3ncc(C(=O)NCc4ccccc4)c3N2)cc1 (stereo not drawn) [Example 53, N-benzyl-5-(4-methoxyphenyl)-7-(trifluoromethyl)-4,5,6,7-tetrahydropyrazolo[1,5-a]pyrimidine-3-carboxamide]	> 2
COc1cccc(CNC(=O)c2cnn3c2N[C@@H](c2ccc(C)cc2)C[C@H]3C(F)(F)F)c1 (relative stereo) [Example 27, Cis-N-(3-methoxybenzyl)-5-(p-tolyl)-7-(trifluoromethyl)-4,5,6,7-tetrahydropyrazolo[1,5-a]pyrimidine-3-carboxamide]	1 to 2 (≈ 0.444 to 0.889 µg/mL)
